Results: patent US20050020544A1, “Bicyclic CB2 cannabinoid receptor ligands” (priority 2002, published 2005)
Read-outs that look alike come from different tables or passages of the source.

Tests used:
human CB2 receptor = human CB2 receptor (Homo sapiens, UniProt P34972); test: biochemical; type: binding; design: purchased Perkin Elmer/NEN; host or cells: CHO cells, stably transfected (membranes); conditions: for CB2/CB1 affinity ratio: IC50 CB1/IC50 CB2; for IC50: displacement of [3H]WIN 55212-2, hCB2 CHO membranes
Method: (§1) In the present invention, binding affinity is represented by the IC50 value, namely the concentration of a test compound that will displace 50% of a radiolabeled agonist from the CB receptors. […] Preferably these ratios will be obtained for human CB1 and CB2 receptors. The selectivity toward CB2, denoted CB2/CB1 affinity, is calculated as the IC50 value obtained by the test compound for the displacement of the CB1 specific radioligand divided by the IC50 value obtained for the displacement of the CB2 specific radioligand, i.e. the IC50 CB1/IC50 CB2.
The affinities of the novel bicyclic analogs to the CB2 receptor were determined by their ability to displace [^3H]WIN 55212-2 from the receptor in membranes derived from hCB2 stably transfected CHO cells (Perkin Elmer/NEN). Membranes were diluted in assay buffer (10 mM HEPES, 1 mM MgCl2, 1 mM EDTA, 0.3 mg/ml BSA, pH=7.4) to 500 μg protein/ml. 50 μl of diluted membranes (25 μg) were incubated with 0.8 nM of [^3H]WIN 55212-2 in the presence or absence of several concentrations of the bicyclic test compounds in a total volume of 1 ml. Tested compounds were dissolved and diluted as previously described for the hCB1 assay. Non-specific binding was measured by the addition of 10 μM CP 55940. Following 40 minutes incubation at 30° C. reactions were filtered as previously described. Filters for all binding assays were counted in a β-counter and log of analog concentration versus % of binding was plotted. IC50 values were extrapolated from this plot.
(§2) Binding to CB1 is measured by competitive inhibition of [^3H]CP55940 in HEK-293 cells stably transfected with the human CB1 receptor gene. Binding to CB2 is measured by competitive inhibition of [^3H]WIN55212-2 in CHO cells stably transfected with the human CB2 receptor gene.

ICR male mice = test: Tail flick model for acute peripheral pain, i.p.; type: in vivo, mouse
Method: ICR male mice (20-30 g average body weight, Harlan, Israel) were injected i.p. at the volume dose of 5 ml/kg. Each treatment group contained at least 6 animals. Morphine HCl was used as positive control at the final dose of 5 mg/kg. Its vehicle, saline, was also included as control. The test compounds were dissolved in CREMOPHOR EL®:ethanol and diluted 1:20 in saline prior to injection, this second type of vehicle was also included as negative control. The final dose injected varied from 0.1 to 10 mg/kg. At predetermined time points after treatment injection, the animals were placed in the tail flick system (Socrel, model DS 20). Animals were gently held while their tails were located above the photoelectric cell. The tails were then illuminated (21V) at 2 cm from the distal tip and the latency time, measured in seconds, was recorded in duplicates. At the end of the study, the animals were euthanized by i.p. injection of 100 mg/kg sodium pentobarbitone.
Two parameters were used to analyze the results, the latency time and the % of animals showing analgesia. […] The results in both cases are expressed as mean±SE. The differences between the latency times or the % of animals showing analgesia among various treatment groups was analyzed by analysis of variance (ANOVA) followed by post-hoc Tukey's test (for latency) or Fisher's exact test (for % animals). A value of p<0.05 is considered to be statistically significant.

human CB1 receptor = target: T1, human CB1 receptor (Homo sapiens, UniProt P21554); test: biochemical; type: binding; conditions: displacement of [3H]CP55940, hCB1 HEK-293 membranes; read-out: CB1 IC50
T1 construct: purchased Perkin Elmer/NEN; host or cells: HEK-293 cells, stably transfected (membranes)
Method: as §1
The CB1 binding assays were performed by testing the ability of the new compounds to displace [^3H]CP55940 from the CB1 receptor on membranes derived from hCB1 stably transfected HEK-293 cells (Perkin Elmer/NEN). Membranes were diluted in the assay buffer (50 mM Tris-HCl, 2.5 mM EDTA, 5 mM MgCl2, 1 mg/ml BSA, pH=7.4) to 500 μg protein/ml. 50 μl of diluted membranes (25 μg) were incubated with [^3H]CP55940 in the presence or absence of the bicyclic test compounds in a total volume of 0.5 ml. Tested compounds were dissolved in DMSO and diluted in the assay buffer to a final concentration of 0.1% solvent. Control samples were added with identical amount of vehicle. Non-specific binding was measured by the addition of 10 μM of WIN 55212-2. Following 1.5 hours incubation at 30° C. reactions were filtered through Whatman 934A/H filters (presoaked with 0.1% Polyethylenimine (PEI)).
as §2

Male Sprague Dawley rats = test: Inflammatory pain: carrageenan paw edema in rats, thermal and mechanical stimuli; type: in vivo, rat; conditions: for ΔForce (tactile stimulus) / ΔLT (thermal stimulus): 10 mg/kg i.p., three hours; for analgesic activity of the antagonists by themselves: 5 mg/kg i.p.
Method: Male Sprague Dawley rats (200 g average body weight, Harlan, Israel) are transiently sedated by placement on dry ice for the duration of the injections. […] Before induction of inflammatory pain and three hours after injection, the animals reactions to pain stimuli were tested in two systems. The first stimulus was thermal and assessed by the Plantar Test according to Hargreaves, using Ugo Basile Model 7370. The scale was set to an intensity of 50 arbitrary units. The latency time till the animal lift a paw as a reaction to the thermal stimulus was recorded for both the inflamed and non-inflamed hind paws. The second stimulus was mechanical (tactile) and assessed using a Dynamic Plantar Sesthesiomether (Ugo Basile Model 73400-002).
The results are measured as the differences between the two hind paws at time 0 and 3 hours both as ALT, for the latency time in the thermal part of the study, and as ΔForce, for the mechanical part of the study.

Female Balb/c mice = tested on: Female Balb/c mice
Method: The purpose of this study is to test in vivo the anti-inflammatory activity of the compounds in paw edema induced by injection of 1% carrageenan in the animal hind paw. Female Balb/c mice (20 g average body weight, Harlan, Israel) are anesthetized with a combination of xylazine and pentobarbitone diluted in sterile saline, 15 and 6 mg/kg i.p. respectively. Anesthetized mice are injected subcutaneously, in the subplantar region of one (right) paw with 0.05 ml of 1% w/v Carrageenan in sterile water. […] The test compounds, including known anti-inflammatory controls, are dissolved in CREMOPHOR EL®:ethanol and further diluted 1:20 or 1:50 in sterile saline prior to i.p. injection that takes place immediately before the carrageenan injection. Three hours after injection the animals are resedated following the previously described procedure. Paw thickness is measured using a dial thickness gauge (Spring-dial, constant low pressure gauge, Mitutoyo, TG/L-1, 0.01 mm) and paw volume is measured using a plethysmometer (model #7150, Ugo Basile, Italy). Paw Edema is expressed as the difference between the right treated and the left untreated paws of the same animal, either as Δ Paw Volume (ΔPV) in millimeters cube or as Δ Paw Thickness (ΔPT) in millimeters. Each group comprises at least 10 animals. […] At the end of the study, animals are euthanized with an i.p. injection of 100 mg/kg pentobarbitone.
The differences among various treatment groups are analyzed by analysis of variance (ANOVA) followed by post-hoc Fisher test. A value of p<0.05 is considered to be statistically significant.
For sake of comparison, known anti-inflammatory drugs such as Celecoxib and Dexamethasone yield respectively in the range of relevant doses 7% and 26% reduction in paw thickness at 0.1 mg/kg, 16% and 31% at 0.25 mg/kg and 24% and 33% at 0.5 mg/kg. […] It should be kept in mind that these commercially available drugs display serious side effects that prevent chronic uses without complementary protective medication.

[1] = 10 mg/kg i.p., 330 minutes (five and a half hours)

Chain of human CB2 receptor (P34972 whole entry): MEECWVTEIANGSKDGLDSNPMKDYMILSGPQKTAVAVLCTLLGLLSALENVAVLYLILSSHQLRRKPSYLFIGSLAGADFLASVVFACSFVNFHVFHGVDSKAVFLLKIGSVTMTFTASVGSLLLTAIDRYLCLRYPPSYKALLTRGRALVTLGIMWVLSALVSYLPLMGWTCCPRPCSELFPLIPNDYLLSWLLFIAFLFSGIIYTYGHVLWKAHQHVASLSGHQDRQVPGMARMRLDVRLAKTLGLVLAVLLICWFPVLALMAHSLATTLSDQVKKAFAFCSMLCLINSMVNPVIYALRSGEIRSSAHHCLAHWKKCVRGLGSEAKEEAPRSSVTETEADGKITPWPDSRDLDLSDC
T1 sequence (P21554 whole entry): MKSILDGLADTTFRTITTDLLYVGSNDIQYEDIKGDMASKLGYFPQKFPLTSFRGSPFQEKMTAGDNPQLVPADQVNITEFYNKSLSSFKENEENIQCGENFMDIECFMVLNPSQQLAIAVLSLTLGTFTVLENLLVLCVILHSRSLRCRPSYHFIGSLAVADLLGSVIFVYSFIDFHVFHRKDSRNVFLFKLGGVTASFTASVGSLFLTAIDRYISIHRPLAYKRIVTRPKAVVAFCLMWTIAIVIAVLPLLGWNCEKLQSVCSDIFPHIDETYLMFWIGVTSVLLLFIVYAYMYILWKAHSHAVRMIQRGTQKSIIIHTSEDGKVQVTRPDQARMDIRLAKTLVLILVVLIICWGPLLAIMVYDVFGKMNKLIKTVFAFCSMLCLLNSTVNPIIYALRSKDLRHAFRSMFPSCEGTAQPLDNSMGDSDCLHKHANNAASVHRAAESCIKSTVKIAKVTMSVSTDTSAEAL

## CCCCCCC(C)(C)c1cc(O)c([C@@H]2CC(=O)C3CC2C3(C)C)c(O)c1 (single isomer, unassigned; (+)) [(+) enantiomer of compound A, reference compound]
Human CB2 receptor
  CB2/CB1 affinity ratio: 10
ICR male mice; 4 mg/kg i.p., thirty minutes
  latency time: 2.4 s

## C#CCCCCC(C)(C)c1cc(O)c(C2C=C(C)C3CC2C3(C)C)c(O)c1 (single isomer, unassigned; (+)) [Compound E, (+)-5-(1,1-Dimethyl-hept-6-ynyl)-2-(4,6,6-trimethyl-bicyclo[3.1.1]hept-3-en-2-yl)-benzene-1,3-diol]
Human CB2 receptor
  CB2/CB1 affinity ratio: 33
  IC50: 0.783 nM
Human CB1 receptor
  IC50: 26 nM

## CC(C)(c1ccc(Cl)cc1)c1cc(O)c(C2CC(=O)C3CC2C3(C)C)c(O)c1 (single isomer, unassigned; (-)) [Compound J, (−)-4-{4-[1-(4-Chloro-phenyl)-1-methyl-ethyl]-2,6-dihydroxy-phenyl]-6,6-dimethyl-bicyclo[3.1.1]heptan-2-one]
Human CB2 receptor
  CB2/CB1 affinity ratio: 60
  IC50: 11 nM
Human CB1 receptor
  IC50: 659 nM

## CCC(C)(CC)c1cc(O)c(C2CC(=O)C3CC2C3(C)C)c(O)c1 (single isomer, unassigned; (-)) [Compound M, (−)-4-[4-(1-Ethyl-1-methyl-propyl)-2,6-dihydroxy-phenyl]-6,6-dimethyl-bicyclo[3.1.1]heptan-2-one]
Human CB2 receptor
  CB2/CB1 affinity ratio: 96
  IC50: 40.8 nM
Human CB1 receptor
  IC50: 3900 nM

## CCCCCCC(C)(C)c1cc(O)c(C2CC(=O)[C@H]3C[C@@H]2C3(C)C)c(OC(=O)/C=C/C(=O)O)c1 (single isomer, unassigned; (-)) [Compound Z, (−)-4-{4-[1,1-Dimethyl-heptyl]-2-fumarate-6-hydroxy-phenyl}-6,6-dimethyl-bicyclo[3.1.1]heptan-2-one]
Human CB2 receptor
  CB2/CB1 affinity ratio: 656
  IC50: 1.2 nM
Human CB1 receptor
  IC50: 816 nM
Male Sprague Dawley rats
  ΔForce (tactile stimulus): 2 g
ICR male mice; [1]
  % animals showing increased analgesia: about 60%
  latency time: 5.2 s

## Cc1ccc(-c2cc(C(F)(F)F)nn2-c2ccc(S(N)(=O)=O)cc2)cc1 [Celecoxib, reference compound]
Male Sprague Dawley rats
  ΔLT (thermal stimulus): 0 s
Female Balb/c mice; 0.1 mg/kg
  reduction in paw thickness: 7%
Female Balb/c mice; 0.25 mg/kg
  reduction in paw thickness: 16%
Female Balb/c mice; 0.5 mg/kg
  reduction in paw thickness: 24%

## CCCCC(C)(C)c1cc(O)c(C2C=C(COC(=O)C(C)(C)C)[C@H]3C[C@@H]2C3(C)C)c(O)c1 (stereo partly drawn) [Compound AH, 2,2-dimethylpropionic Acid-4-{4-[1,1-Dimethyl-pentyl]-2,6-dihydroxy-phenyl}-6,6-dimethyl-bicyclo[3.1.1]hept-2-en-2-yl Methyl Ester]
Human CB2 receptor
  CB2/CB1 affinity ratio: 9.5
  IC50: 42 nM
Human CB1 receptor
  IC50: 398 nM

## C#CCCCCC(C)(C)c1cc(O)c([C@H]2CC(=O)[C@H]3C[C@@H]2C3(C)C)c(O)c1 [Compound F]
Human CB2 receptor
  CB2/CB1 affinity ratio: 38
  IC50: 0.344 nM
Human CB1 receptor
  IC50: 13 nM

## CC(C)(CCc1ccccc1)c1cc(O)c(C2CC(=O)C3CC2C3(C)C)c(O)c1 (stereo not drawn) [Compound G, 4-[4-(1,1-Dimethyl-3-phenyl-propyl)-2,6-dihydroxy-phenyl]-6,6-dimethyl-bicyclo[3.1.1]heptan-2-one]
Human CB2 receptor
  CB2/CB1 affinity ratio: 85
  IC50: 6.6 nM
Human CB1 receptor
  IC50: 563 nM

## CC1=CC(c2c(O)cc(-c3ccc(C(C)(C)C)cc3)cc2O)C2CC1C2(C)C (stereo not drawn) [Compound Q, 5-(1,1-Dimethyl-ethyl-phenyl)-2-(4,6,6-trimethyl-bicyclo[3.1.1]hept-3-en-2-yl)-benzene-1,3-diol]
Human CB2 receptor
  CB2/CB1 affinity ratio: 53
  IC50: 12 nM
Human CB1 receptor
  IC50: 640 nM

## O=C(O)Cc1ccccc1Nc1c(Cl)cccc1Cl [Diclofenac, reference compound]
Male Sprague Dawley rats
  ΔForce (tactile stimulus): 2 g
  ΔLT (thermal stimulus): 0 s

## CC(C(=O)O)c1cccc(C(=O)c2ccccc2)c1 (stereo not drawn) [Ketoprofen, reference compound]
Male Sprague Dawley rats
  ΔForce (tactile stimulus): 7 g
  ΔLT (thermal stimulus): 0 s

## Cc1c(C(=O)NN2CCCCC2)nn(-c2ccc(Cl)cc2Cl)c1-c1ccc(Cl)cc1 [SR141716A, reference compound]
Male Sprague Dawley rats
  analgesic activity of the antagonists by themselves: no analgesic activity

## SR144528 [reference compound]
Male Sprague Dawley rats
  analgesic activity of the antagonists by themselves: no analgesic activity
